Experimental data from article PMC12888861, “Antibacterial activity of enmetazobactam against Acinetobacter spp.: a molecular dissection of mechanism of action and resistance determinants” (Antimicrobial Agents and Chemotherapy, 2025).

How the values were obtained:
[1] = test system: carbapenem-susceptible A. baumannii isolates (n = 54); experiment: MIC, broth microdilution (EUCAST), carbapenem-susceptible A. baumannii isolates; assay type: cell-based, Acinetobacter baumannii
How it was run: (§1)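 Broth microdilution per EUCAST v.15 guidelines on clinical Acinetobacter isolates from a Spanish 2020 multicenter collection; enmetazobactam also tested alone. A. baumannii ATCC 19606 served as reference strain, in duplicate assays.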

[2] = test system: carbapenem-resistant A. baumannii (CRAB) isolates (n = 67); experiment: MIC, broth microdilution (EUCAST), carbapenem-resistant A. baumannii isolates; assay type: cell-based, Acinetobacter baumannii; details: Acinetobacter baumannii
How it was run: as §1

[3] = Acinetobacter baumannii, carbapenem-susceptible A. baumannii isolates (n = 54), ETZ fixed 8 mg/L in combinations

C[n+]1ccn(C[C@@]2(C)[C@H](C(=O)[O-])N3C(=O)C[C@H]3S2(=O)=O)n1 [enmetazobactam]
8 µg/mL: MIC ([1]; Acinetobacter baumannii, isolate Ab142, ST 1, ADC-like, OXA-69, in combinations ETZ fixed at 8 mg/L) | MIC ([1]; Acinetobacter baumannii, isolate Ab149, ST 1112, ADC-6, OXA-407, in combinations ETZ fixed at 8 mg/L) | MIC ([2]; MBC set, isolate Ab9, A. baumannii ST 2, ADC-30, OXA-66, OXA-23, TEM-12)
4 µg/mL: MIC ([1]; Acinetobacter baumannii, MBC set, isolate Ab34, A. baumannii ST 2182, ADC-2, OXA-130, non-CHDLs-producing) | MIC ([1]; Acinetobacter baumannii, isolate Ab1, ST 164, ADC-6, OXA-91, in combinations ETZ fixed at 8 mg/L) | MIC ([1]; Acinetobacter baumannii, isolate Ab11, ST 239, ADC-2, OXA-51, in combinations ETZ fixed at 8 mg/L) | MIC ([1]; Acinetobacter baumannii, isolate Ab34, ST 2182, ADC-2, OXA-130, in combinations ETZ fixed at 8 mg/L) | MIC ([1]; Acinetobacter baumannii, isolate Ab38, ST 866, ADC-2, OXA-385, in combinations ETZ fixed at 8 mg/L) | MIC ([1]; Acinetobacter baumannii, isolate Ab40, ST 2176, ADC-2, OXA-64, in combinations ETZ fixed at 8 mg/L) | MIC ([1]; Acinetobacter baumannii, isolate Ab50, ST 2176, ADC-2, OXA-64, in combinations ETZ fixed at 8 mg/L) | MIC ([1]; Acinetobacter baumannii, isolate Ab58, ST 6, ADC-2, OXA-94, in combinations ETZ fixed at 8 mg/L) | MIC ([1]; Acinetobacter baumannii, isolate Ab61, ST 1639, ADC-7, OXA-64, in combinations ETZ fixed at 8 mg/L) | MIC ([1]; Acinetobacter baumannii, isolate Ab62, ST 265, ADC-2, OXA-91, in combinations ETZ fixed at 8 mg/L) | MIC ([1]; Acinetobacter baumannii, isolate Ab67, ST 1, ADC-11, OXA-69, in combinations ETZ fixed at 8 mg/L) | MIC ([1]; Acinetobacter baumannii, isolate Ab79, ST 106, ADC-11, OXA-78, in combinations ETZ fixed at 8 mg/L) | MIC ([1]; Acinetobacter baumannii, isolate Ab80, ST 2182, ADC-6, OXA-208, in combinations ETZ fixed at 8 mg/L) | MIC ([1]; Acinetobacter baumannii, isolate Ab81, ST 25, ADC-79, OXA-64, in combinations ETZ fixed at 8 mg/L) | MIC ([1]; Acinetobacter baumannii, isolate Ab93, ST 25, ADC-79, OXA-64, in combinations ETZ fixed at 8 mg/L) | MIC ([1]; Acinetobacter baumannii, isolate Ab110, ST 1623, ADC-3, OXA-70, in combinations ETZ fixed at 8 mg/L) | MIC ([1]; Acinetobacter baumannii, isolate Ab127, ST 2176, ADC-2, OXA-64, in combinations ETZ fixed at 8 mg/L) | MIC ([1]; Acinetobacter baumannii, isolate Ab136, ST 2183, ADC-like, OXA-66, in combinations ETZ fixed at 8 mg/L) | MIC ([1]; Acinetobacter baumannii, isolate Ab139, ST 54, ADC-like, OXA-365, in combinations ETZ fixed at 8 mg/L) | MIC ([1]; Acinetobacter baumannii, isolate Ab143, ST 1328, ADC-76, OXA-408, in combinations ETZ fixed at 8 mg/L) | MIC ([1]; Acinetobacter baumannii, isolate Ab150, ST 2184, ADC-like, OXA-64, in combinations ETZ fixed at 8 mg/L) | MIC ([1]; Acinetobacter baumannii, isolate Ab152, ST 132, ADC-2, OXA-120, in combinations ETZ fixed at 8 mg/L) | MIC ([1]; Acinetobacter baumannii, isolate Ab170, ST 2110, ADC-4, OXA-338, in combinations ETZ fixed at 8 mg/L) | MIC ([1]; Acinetobacter baumannii, isolate Ab185, ST 2, ADC-26, OXA-66, in combinations ETZ fixed at 8 mg/L) | MIC ([1]; Acinetobacter baumannii, isolate Ab188, ST 203, ADC-6, OXA-217, PDC-1, in combinations ETZ fixed at 8 mg/L) | MIC90 [1, 3]
3.7: MIC distribution 1 ([1]; cumulative share of carbapenem-susceptible A. baumannii isolates (n = 54) at MIC 1 mg/L, ETZ fixed 8 mg/L in combinations)
1 µg/mL: MIC ([1]; Acinetobacter baumannii, isolate Ab209, in combinations ETZ fixed at 8 mg/L) | MIC ([1]; Acinetobacter baumannii, isolate Ab220, in combinations ETZ fixed at 8 mg/L)
51.9: MIC distribution 2 ([1]; cumulative share of carbapenem-susceptible A. baumannii isolates (n = 54) at MIC 2 mg/L, ETZ fixed 8 mg/L in combinations)
2 µg/mL: MIC ([1]; Acinetobacter baumannii, MBC set, isolate Ab1, A. baumannii ST 164, ADC-6, OXA-91, non-CHDLs-producing) | MIC ([1]; Acinetobacter baumannii, MBC set, isolate Ab11, A. baumannii ST 239, ADC-2, OXA-51, non-CHDLs-producing) | MIC ([1]; Acinetobacter baumannii, isolate Ab57, ST 1470, ADC-58, OXA-106, in combinations ETZ fixed at 8 mg/L) | MIC ([1]; Acinetobacter baumannii, isolate Ab95, ST 582, ADC-5, OXA-317, in combinations ETZ fixed at 8 mg/L) | MIC ([1]; Acinetobacter baumannii, isolate Ab96, ST 582, ADC-5, OXA-317, in combinations ETZ fixed at 8 mg/L) | MIC ([1]; Acinetobacter baumannii, isolate Ab100, ST 145, ADC-58, OXA-343, in combinations ETZ fixed at 8 mg/L) | MIC ([1]; Acinetobacter baumannii, isolate Ab112, ST 193, ADC-like, OXA-120, in combinations ETZ fixed at 8 mg/L) | MIC ([1]; Acinetobacter baumannii, isolate Ab124, ST 2176, ADC-2, OXA-64, in combinations ETZ fixed at 8 mg/L) | MIC ([1]; Acinetobacter baumannii, isolate Ab128, ST 2176, ADC-2, OXA-64, in combinations ETZ fixed at 8 mg/L) | MIC ([1]; Acinetobacter baumannii, isolate Ab130, ST 32, ADC-79, OXA-100, in combinations ETZ fixed at 8 mg/L) | MIC ([1]; Acinetobacter baumannii, isolate Ab131, ST 687, ADC-like, OXA-208, in combinations ETZ fixed at 8 mg/L) | MIC ([1]; Acinetobacter baumannii, isolate Ab132, ST 1112, ADC-79, OXA-89, in combinations ETZ fixed at 8 mg/L) | MIC ([1]; Acinetobacter baumannii, isolate Ab158, ST 2034, ADC-2, OXA-217, in combinations ETZ fixed at 8 mg/L) | MIC ([1]; Acinetobacter baumannii, isolate Ab163, ST 132, ADC-2, OXA-120, in combinations ETZ fixed at 8 mg/L) | MIC ([1]; Acinetobacter baumannii, isolate Ab167, ST 1623, ADC-like, OXA-345, in combinations ETZ fixed at 8 mg/L) | MIC ([1]; Acinetobacter baumannii, isolate Ab168, ST 1470, ADC-75, OXA-402, in combinations ETZ fixed at 8 mg/L) | MIC ([1]; Acinetobacter baumannii, isolate Ab172, ST 2185, ADC-5, OXA-217, in combinations ETZ fixed at 8 mg/L) | MIC ([1]; Acinetobacter baumannii, isolate Ab187, ST 105, ADC-2, OXA-430, in combinations ETZ fixed at 8 mg/L) | MIC ([1]; Acinetobacter baumannii, isolate Ab189, ST 1405, ADC-3, OXA-120, in combinations ETZ fixed at 8 mg/L) | MIC ([1]; Acinetobacter baumannii, isolate Ab190, ST 2186, ADC-6, OXA-413, in combinations ETZ fixed at 8 mg/L) | MIC ([1]; Acinetobacter baumannii, isolate Ab193, ST 164, ADC-6, OXA-91, in combinations ETZ fixed at 8 mg/L) | MIC ([1]; Acinetobacter baumannii, isolate Ab195, ST 1, ADC-11, OXA-69, in combinations ETZ fixed at 8 mg/L) | MIC ([1]; Acinetobacter baumannii, isolate Ab200, ST 1336, ADC-2, OXA-51, in combinations ETZ fixed at 8 mg/L) | MIC ([1]; Acinetobacter baumannii, isolate Ab202, ST 1, ADC-11, OXA-69, in combinations ETZ fixed at 8 mg/L) | MIC ([1]; Acinetobacter baumannii, isolate Ab203, ST 221, ADC-6, OXA-88, in combinations ETZ fixed at 8 mg/L) | MIC ([1]; Acinetobacter baumannii, isolate Ab206, ST 2187, ADC-58, OXA-69, in combinations ETZ fixed at 8 mg/L) | MIC ([1]; Acinetobacter baumannii, isolate Ab213, in combinations ETZ fixed at 8 mg/L) | MIC ([1]; Acinetobacter baumannii, isolate Ab218, in combinations ETZ fixed at 8 mg/L) | MIC50 [1, 3]
64 µg/mL: MIC ([2]; MBC set, isolate Ab4, A. baumannii ST 2, ADC-30, OXA-66, ISAba1-OXA-23) | MIC ([2]; MBC set, isolate Ab6, A. baumannii ST 2, ADC-30, OXA-66, ISAba1-OXA-23, TEM-12) | MIC ([2]; isolate Ab56, ST 1, ADC-75, OXA-69, OXA-23, ETZ fixed 8 mg/L in combinations) | MIC ([2]; isolate Ab83, ST 25, ADC-5, OXA-64, OXA-23, DUR fixed at 4 mg/L in combinations)
96.3: MIC distribution 4 ([1]; cumulative share of carbapenem-susceptible A. baumannii isolates (n = 54) at MIC 4 mg/L, ETZ fixed 8 mg/L in combinations)
100: MIC distribution 8 ([1]; cumulative share of carbapenem-susceptible A. baumannii isolates (n = 54) at MIC 8 mg/L, ETZ fixed 8 mg/L in combinations) | MIC distribution 16 ([1]; cumulative share of carbapenem-susceptible A. baumannii isolates (n = 54) at MIC 16 mg/L, ETZ fixed 8 mg/L in combinations) | MIC distribution ≥32 ([1]; cumulative share of carbapenem-susceptible A. baumannii isolates (n = 54) at MIC ≥32 mg/L, ETZ fixed 8 mg/L in combinations)
0: MIC distribution 0.12 [1] | MIC distribution 0.25 ([1]; cumulative share of carbapenem-susceptible A. baumannii isolates (n = 54) at MIC 0.25 mg/L, ETZ fixed 8 mg/L in combinations) | MIC distribution 0.5 ([1]; cumulative share of carbapenem-susceptible A. baumannii isolates (n = 54) at MIC 0.5 mg/L, ETZ fixed 8 mg/L in combinations) | MIC distribution ≤0.06 ([1]; cumulative share of carbapenem-susceptible A. baumannii isolates (n = 54) at MIC ≤0.06 mg/L, ETZ fixed 8 mg/L in combinations)
